The source of these data is ChEMBL document CHEMBL3045001, “Synthesis and evaluation of analgesic, anti-inflammatory, and anticancer activities of new pyrazole-3(5)-carboxylic acid derivatives” (Med Chem Res, 2013).

The subject of series [1] is Mus musculus. Description: Anti-inflammatory activity in carrageenan-induced Mus musculus Swiss albino (mouse) paw edema model assessed as inhibition of paw edema at 100 mg/kg, sc administered 30 min prior to carrageenan injection measured after 360 min. The format is functional. The following applies: route subcutaneous.
The species named for series [2] is Mus musculus. The experiment in a line: Acute toxicity against Mus musculus Swiss albino (mouse) assessed as mortality after 48 hr. The format is organism-based. Particulars: in vivo.
Series [3] relates to Mus musculus. The experiment in a line: Anti-inflammatory activity in carrageenan-induced Mus musculus Swiss albino (mouse) paw edema model assessed as inhibition of paw edema at 100 mg/kg, sc administered 30 min prior to carrageenan injection measured after 90 min. Particulars: route subcutaneous. Type of series: functional.
The species entered for series [4] is Mus musculus. Description: Acute toxicity against Mus musculus Swiss albino (mouse) assessed as morbidity after 48 hr. The format is organism-based. The following applies: in vivo.
Series [5] relates to Mus musculus. Description: Anti-inflammatory activity in carrageenan-induced Mus musculus Swiss albino (mouse) paw edema model assessed as paw swelling at 100 mg/kg, sc administered 30 min prior to carrageenan injection measured after 90 min (reference value: 38.0 +/-2.0 x10'-2 mm). Particulars: route subcutaneous. The format is functional.
Series [6] relates to Mus musculus. Description: Anti-inflammatory activity in carrageenan-induced Mus musculus Swiss albino (mouse) paw edema model assessed as paw swelling at 100 mg/kg, sc administered 30 min prior to carrageenan injection measured after 360 min (reference value: 77.0 +/-3.0 x10'-2 mm). The format is functional. Particulars: route subcutaneous.
In series [7] the test system is Mus musculus. The experiment in a line: Anti-inflammatory activity in carrageenan-induced Mus musculus Swiss albino (mouse) paw edema model assessed as paw swelling at 100 mg/kg, sc administered 30 min prior to carrageenan injection measured after 270 min (rvb = 75.0 +/-3.0 x10'-2 mm). Particulars: route subcutaneous. The format is functional.
In series [8] the test system is Mus musculus. Description: Anti-inflammatory activity in carrageenan-induced Mus musculus Swiss albino (mouse) paw edema model assessed as inhibition of paw edema at 100 mg/kg, sc administered 30 min prior to carrageenan injection measured after 180 min. Type of series: functional. Particulars: route subcutaneous.
In series [9] the test system is Mus musculus. The experiment in a line: Analgesic activity in Mus musculus Swiss albino (mouse) assessed as inhibition of p-benzoquinone-induced abdominal writhing at 100 mg/kg, sc administered 30 min prior to PBQ injection measured after 5 min for 15 min. The format is functional, Abdomen. More on the design: scale not given: the % may be the effect or the level left. The following applies: route subcutaneous.

The subject of series [10] is Mus musculus. The experiment in a line: Anti-inflammatory activity in carrageenan-induced Mus musculus Swiss albino (mouse) paw edema model assessed as paw swelling at 100 mg/kg, sc administered 30 min prior to carrageenan injection measured after 180 min (reference value: 51.0 +/-3.0 x10'-2 mm). The format is functional. The following applies: route subcutaneous.
For series [11], the system named is Mus musculus. The experiment in a line: Anti-inflammatory activity in carrageenan-induced Mus musculus Swiss albino (mouse) paw edema model assessed as inhibition of paw edema at 100 mg/kg, sc administered 30 min prior to carrageenan injection measured after 270 min. Type of series: functional. Particulars: route subcutaneous.
Series [12] concerns MCF7. The experiment in a line: Anticancer activity against Homo sapiens (human) MCF7 cells assessed as cell viability at 50 uM after 24 hr by MTT assay (reference value: 100 +/-2.74%). Type of series: functional. Particulars: MCF7, 24 h, read-out: Activity.
The subject of series [13] is MCF7. The experiment in a line: Anticancer activity against Homo sapiens (human) MCF7 cells assessed as cell viability at 50 uM after 48 hr by MTT assay (100 +/-5.08%). The format is functional. Particulars: MCF7, 48 h, read-out: Activity.
The test system of series [14] is HeLa. The experiment in a line: Anticancer activity against Homo sapiens (human) HeLa cells assessed as cell viability at 50 uM after 24 hr by MTT assay (reference value: 100 +/-4.13%). Type of series: functional. The following applies: read-out: Activity.
Series [15] has as its system HL-60. The experiment in a line: Anticancer activity against Homo sapiens (human) HL60 cells assessed as cell viability at 50 uM after 24 hr by MTT assay (reference value: 100 +/-3.55%). Type of series: functional. The following applies: HL-60, 24 h, read-out: Activity.
Series [16] concerns Raji. Description: Anticancer activity against Homo sapiens (human) Raji cells assessed as cell viability at 50 uM after 24 hr by MTT assay (reference value: 100 +/-5.02%). The following applies: read-out: Activity. The format is functional.
The subject of series [17] is Raji. Description: Anticancer activity against Homo sapiens (human) Raji cells assessed as cell viability at 50 uM after 48 hr by MTT assay (reference value: 100 +/-4.26%). The format is functional. Particulars: read-out: Activity.
The test system of series [18] is HL-60. The experiment in a line: Anticancer activity against Homo sapiens (human) HL60 cells assessed as cell viability at 50 uM after 48 hr by MTT assay (reference value: 100 +/-8.41%). Particulars: HL-60, 48 h, read-out: Activity. Type of series: functional.
The test system of series [19] is HeLa. The experiment in a line: Anticancer activity against Homo sapiens (human) HeLa cells assessed as cell viability at 50 uM after 48 hr by MTT assay (reference value: 100 +/-3.8%). The following applies: read-out: Activity. Type of series: functional.
Series [20] deals with MDA-MB-231. The experiment in a line: Anticancer activity against Homo sapiens (human) estrogen-independent MDA-MB-231 cells assessed as cell viability at 50 uM after 24 hr by MTT assay (reference value: 100 +/-7.08%). Type of series: functional. The following applies: MDA-MB-231, 24 h, read-out: Activity.
Series [21] relates to MDA-MB-231. The experiment in a line: Anticancer activity against Homo sapiens (human) estrogen-independent MDA-MB-231 cells assessed as cell viability at 50 uM after 48 hr by MTT assay (reference value: 100 +/-3.71%). The format is functional. The following applies: MDA-MB-231, 48 h, read-out: Activity.
Series [22] has as its system HeLa. The experiment in a line: Anticancer activity against Homo sapiens (human) HeLa cells assessed as inhibition of cell viability by MTT assay. Type of series: functional, cell-based.
Series [23] relates to HL-60. The experiment in a line: Anticancer activity against Homo sapiens (human) HL60 cells assessed as inhibition of cell viability by MTT assay. The format is functional, cell-based.

Consider `COc1ccc(CN2CCN(C(=O)c3cc(-c4ccc(C)cc4)nn3Cc3ccccc3)CC2)c(OC)c1OC`, for which the inhibition in vivo at 100 mg/kg was determined as 53.3% in series [1], 17.8% in series [3], 44.7% in series [8] and 74.4% in series [11]. The Activity result in series [2] is reported as “Non-toxic”; in series [4], “Non-toxic”; in series [5], 31 ×10⁻² mm; in [6] it was 36 ×10⁻² mm; in series [7], 19 ×10⁻² mm; in series [9], 53%. Further, in series [10], the Activity is 28 ×10⁻² mm.
Regarding `Cc1ccc(-c2cc(C(=O)Oc3ccc(C(C)C)cc3)nn2Cc2ccccc2)cc1`, the inhibition in vivo at 100 mg/kg worked out at 47.8% in [1], 27.4% in [3], 18.7% in series [8] and 50.4% in series [11]. The viability at 50 µM in [12] turned out to be 79.6%; in [13], 82.6%; in series [14], 79.6%; in series [15] it was 120%; in series [16], 90.1%; in [17] it was 97%. Further, the viability at 50 µM in [18] was 83.6%; in [19], 54.6%; in series [20], 106%; in series [21], 66.2%. The Activity result in [2] is “Non-toxic”; in [4] it was “Non-toxic”; in series [5], 27 ×10⁻² mm; in series [6], 40 ×10⁻² mm; in series [7], 37 ×10⁻² mm; in series [9] it was 45.7%. Moreover, in series [10], the Activity was determined as 42 ×10⁻² mm.
Consider `Cc1ccc(-c2cc(C(=O)NNc3ccc4ccccc4n3)n(Cc3ccccc3)n2)cc1`, for which the inhibition in vivo at 100 mg/kg in series [1] is 42.8%; in series [3], 23%; in series [8] it was 24.1%; in series [11], 44.4%. Further, the Activity entry was “Non-toxic” in [2]; “Non-toxic” in series [4]; 29 ×10⁻² mm in [5]; 44 ×10⁻² mm in series [6]; 42 ×10⁻² mm in series [7]; 48.9% in series [9]. Moreover, the Activity in [10] worked out at 39 ×10⁻² mm.
In the case of `Cc1ccc(-c2cc(C(=O)Oc3ccc(C(C)(C)C)cc3)nn2Cc2ccccc2)cc1`, the inhibition in vivo at 100 mg/kg in [1] is 58.7%; in series [3], 26%; in [8], 28.5%; in series [11], 54%. The viability at 50 µM came out at 90.9% in series [12]; 92.4% in [13]; 118% in [14]; 134% in series [15]; 111% in series [16]; 95.3% in series [17]. The viability at 50 µM in series [18] amounted to 69.7%; in [19], 62.1%; in series [20], 93.7%; in series [21] it was 70.5%. The Activity result was “Non-toxic” in [2]; “Non-toxic” in [4]; 28 ×10⁻² mm in [5]; 32 ×10⁻² mm in series [6]; 34 ×10⁻² mm in [7]; 73.4% in series [9]. In addition, the Activity in series [10] is recorded as 37 ×10⁻² mm.
As to `Cc1ccc(-c2cc(C(=O)Oc3ccc(-n4ccnc4)cc3)n(Cc3ccccc3)n2)cc1`, the inhibition in vivo at 100 mg/kg was 18.8% in series [1], 6.6% in [3], 15.4% in series [8] and 19.2% in series [11]. The viability at 50 µM in series [12] was found to be 67.6%; in [13] it was 52.4%; in series [14] it was 36.7%; in [15], 108%; in series [16] it was 96.5%; in series [17], 106%. Further, the viability at 50 µM in series [18] was 121%; in [19] it was 33.9%; in series [20], 33.1%; in series [21], 24.4%. In addition, the Activity entry in [2] is “Non-toxic”; in series [4], “Non-toxic”; in series [5], 35 ×10⁻² mm; in series [6] it was 62 ×10⁻² mm; in series [7] it was 61.6 ×10⁻² mm; in series [9], 14.9%. Also, in series [10], the Activity was 43 ×10⁻² mm. For the same molecule, the IC50 in [22] was 30.4 µM.
For `CCOC(=O)C1CCN(C(=O)c2cc(-c3ccc(C)cc3)nn2Cc2ccccc2)CC1`, the inhibition in vivo at 100 mg/kg in series [1] was 57.6%; in [3], 26.7%; in series [8] it was 33.3%; in series [11], 54.4%. Besides, the viability at 50 µM in series [12] turned out to be 54.2%; in [13] it was 88.2%; in [14], 53.5%; in series [15] it was 102%; in series [16], 77%; in series [17] it was 97.3%. Further, the viability at 50 µM in [18] worked out at 91.7%; in [19], 49.9%; in series [20], 96.5%; in series [21], 64%. Also, the Activity entry in series [2] is “Non-toxic”; in series [4] it was “Non-toxic”; in series [5], 28 ×10⁻² mm; in series [6], 33 ×10⁻² mm; in [7], 34 ×10⁻² mm; in series [9], 77%. Moreover, in series [10], the Activity came to 34 ×10⁻² mm.
Regarding `Cc1ccc(-c2cc(C(=O)N3CCN(Cc4ccc(C(C)C)cc4)CC3)nn2Cc2ccccc2)cc1`, the inhibition in vivo at 100 mg/kg in [1] was 63.4%; in series [3], 8.9%; in series [8], 46.3%; in series [11], 58.9%. For the same molecule, the viability at 50 µM was 51.4% in [12]; 56.7% in [13]; 52.5% in series [14]; 11.9% in series [15]; 44.4% in series [16]; 29.6% in series [17]. Moreover, the viability at 50 µM was 15.5% in [18], 34.5% in series [19], 67.2% in series [20] and 41.1% in series [21]. The IC50 in series [23] came to 24.4 µM; in series [22], 30.5 µM. The Activity entry in series [2] is “Non-toxic”; in series [4], “Non-toxic”; in series [5], 34 ×10⁻² mm; in series [6], 28 ×10⁻² mm; in series [7] it was 31 ×10⁻² mm; in series [9], 59.2%. In series [10], the Activity is listed as 28 ×10⁻² mm.
